Tests used:
[1] = test system: HCC827 (EGFR DelE746_A750); assay: Inhibition test for growth of cancer cell expressing EGFR (SRB), HCC827; assay type: cell-based; conditions: Homo sapiens, HCC827, 72 h, HCC827 cells, 72 hours, SRB; read-out: GI50 HCC827 EGFR DelE746_A750;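 also: cells in 96-well plates exposed to tenfold serial dilutions from 100 µM, fixed with trichloroacetic acid, SRB-stained, absorbance read at 540 nm, DMSO under 1%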
Method: (§4) A431 cell line was incubated in a high-glucose DMEM (Dulbecco's Modified Eagle's Medium) supplemented with 10% fetal bovine serum (FBS) and 1% penicillin/streptomycin (Gibco BRL), and HCC827 and NCI-H1975 cell lines were incubated in an RPMI medium supplemented with 10% FBS, 1% penicillin/streptomycin and 1% sodium pyruvate.
(§5) The cancer cell lines stored in a liquid nitrogen tank were each quickly thawed at 37° C., and centrifuged to remove the medium. The resulting cell pellet was mixed with a culture medium, incubated in a culture flask at 37° C. under 5% CO2 for 2 to 3 days, and the medium was removed. The remaining cells were washed with DPBS (Dulbecco's Phosphate Buffered Saline) and separated from the flask by using Tripsin-EDTA. […] 100 μl of the diluted cell solution was added to each well of a 96-well plate, and incubated at 37° C. under 5% CO2 for 1 day.
(§6) In case that the test compound was not soluble in DMSO, 1% HCl was added thereto and treated in a 40° C. water bath for 30 mins until a complete dissolution was attained. The DMSO solution containing test compound was diluted with a culture medium to a final concentration of 100 μM, and then diluted 10 times serially to 10^−6 μM (a final concentration of DMSO was less than 1%).
(§7) The medium was removed from each well of the 96-well plate. And then, 100 μl of a test compound solution was added to each well holding the cultured cells, and the plate was incubated at 37° C. under 5% CO2 for 72 hours (except that NCI-H1975 cells were incubated for 48 hours). After removing the medium from the plate, 50 μA of 10% trichloroacetic acid was added to each well, and the plate was kept at 4° C. for 1 hour to fix the cells to the bottom of the plate. The added 10% trichloroacetic acid solution was removed from each well, the plate was dried, 100 μA of an SRB (Sulforhodamine-B) dye solution at a concentration of 0.4% dissolved in 1% acetic acid was added thereto, and the resulting mixture was reacted for 10 mins at room temperature. After removing the dye solution, the plate was washed with water, and well dried. When the dye solution was not effectively removed by water, 1% acetic acid was used. 150 μA of 10 mM trisma base was added to each well, and the absorbance at 540 nm wavelength was determined with a microplate reader.

[2] = test system: NCI-H1975 (EGFR L858R/T790M); assay: Inhibition test for growth of cancer cell expressing EGFR (MTS), NCI-H1975; assay type: cell-based; conditions: Homo sapiens; NCI-H1975 cells, 48 hours, MTS; read-out: GI50 NCI-H1975 EGFR L858R/T790M
A431 (EGFR WT) = assay: Inhibition test for growth of cancer cell expressing EGFR (SRB), A431; assay type: cell-based; conditions: Homo sapiens, A-431; A431 cells, 72 hours, SRB; read-out: GI50 A431 EGFR WT;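 also: cells in 96-well plates exposed to tenfold serial dilutions from 100 µM down to 10^−6 µM, DMSO under 1%, SRB staining read as absorbance at 540 nm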
Method: as §4, §5, §6, §7

BTK = target: T1, BTK (Homo sapiens, UniProt Q06187); assay: z-lyte kinase assay, BTK; assay type: biochemical
T1 construct: purchased Invitrogen
Method: (§1) The inhibiting activities of the inventive compounds obtained in Examples 1 to 237 against EGFR WT and EGFR L858R/T790M kinase were determined using z-lyte kinase assay kit (Invitrogen, PV3191). The kinases used in the test were purchased from Invitrogen.
(§2) The compounds obtained in Examples 1 to 237 were each prepared to 10 mM DMSO solution, and a solution containing 4% DMSO were prepared therefrom and diluted to a concentration of 1 μM to 0.0001 μM. […] The test was conducted in a 384 well polystyrene flat-bottomed plates. 5 μl of the diluted solution of each compound was added to each well, and 10 μl of a mixture of peptide substrate and kinase in a suitable concentration and 5 μl of 5˜300 μM ATP solution were successively added thereto and the plate was incubated in a stirrer at room temperature for 60 minutes. After 60 mins, 10 μl of coloring reagent was added to the resulting mixture to initiate a fluorescence reaction of peptide substrate and a terminating solution was added thereto for terminating the reaction. A fluorescence value of each well was determined with a fluorescence meter (Molecular Device) at 400 nm (excitation filter) and 520 nm (emission filter). […] The calculation of IC50 and the result analysis were carried out by using Microsoft Excel.
(§3) The inhibiting activities of the inventive compounds obtained in Examples 1 to 237 against BTK and JAK3 kinases were determined, respectively. The procedure of Test Example 2 was repeated except that BTK and JAK3 kinases (Invitrogen) were employed instead of using the EGFR kinase.

JAK3 = target: T2, JAK3 (Homo sapiens, UniProt P52333); assay: z-lyte kinase assay, JAK3; assay type: biochemical
T2 construct: purchased Invitrogen
T2 sequence (P52333 1-1124): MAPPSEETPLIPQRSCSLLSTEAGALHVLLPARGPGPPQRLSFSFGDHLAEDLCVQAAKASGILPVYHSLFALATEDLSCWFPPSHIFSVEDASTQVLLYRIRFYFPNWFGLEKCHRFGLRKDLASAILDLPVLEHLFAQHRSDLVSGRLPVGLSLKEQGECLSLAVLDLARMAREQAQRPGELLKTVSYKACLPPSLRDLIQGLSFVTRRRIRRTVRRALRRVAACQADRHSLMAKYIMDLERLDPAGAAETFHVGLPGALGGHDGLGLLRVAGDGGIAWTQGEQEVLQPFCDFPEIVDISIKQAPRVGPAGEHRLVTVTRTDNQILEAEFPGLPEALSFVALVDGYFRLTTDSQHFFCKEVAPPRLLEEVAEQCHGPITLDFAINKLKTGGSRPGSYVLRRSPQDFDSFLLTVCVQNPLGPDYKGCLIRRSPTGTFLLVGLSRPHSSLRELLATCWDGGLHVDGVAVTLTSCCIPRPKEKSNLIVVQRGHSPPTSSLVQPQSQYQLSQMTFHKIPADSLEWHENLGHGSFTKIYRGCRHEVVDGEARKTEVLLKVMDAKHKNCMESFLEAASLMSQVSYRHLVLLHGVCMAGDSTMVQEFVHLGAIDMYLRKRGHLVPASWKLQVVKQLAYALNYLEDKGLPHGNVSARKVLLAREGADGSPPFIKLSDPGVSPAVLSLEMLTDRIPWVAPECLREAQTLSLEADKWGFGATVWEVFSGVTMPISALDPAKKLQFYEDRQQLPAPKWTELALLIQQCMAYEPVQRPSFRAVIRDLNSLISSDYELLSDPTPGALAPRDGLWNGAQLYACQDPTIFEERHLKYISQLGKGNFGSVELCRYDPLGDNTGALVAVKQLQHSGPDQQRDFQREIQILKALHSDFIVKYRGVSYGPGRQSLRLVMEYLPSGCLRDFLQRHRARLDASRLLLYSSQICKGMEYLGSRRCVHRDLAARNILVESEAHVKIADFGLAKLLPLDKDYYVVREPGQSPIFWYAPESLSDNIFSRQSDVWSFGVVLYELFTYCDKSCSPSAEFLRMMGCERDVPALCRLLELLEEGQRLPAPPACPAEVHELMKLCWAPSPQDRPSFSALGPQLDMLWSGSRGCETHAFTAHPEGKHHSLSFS
Method: as §1, §2, §3

T1 sequence (Q06187 whole entry): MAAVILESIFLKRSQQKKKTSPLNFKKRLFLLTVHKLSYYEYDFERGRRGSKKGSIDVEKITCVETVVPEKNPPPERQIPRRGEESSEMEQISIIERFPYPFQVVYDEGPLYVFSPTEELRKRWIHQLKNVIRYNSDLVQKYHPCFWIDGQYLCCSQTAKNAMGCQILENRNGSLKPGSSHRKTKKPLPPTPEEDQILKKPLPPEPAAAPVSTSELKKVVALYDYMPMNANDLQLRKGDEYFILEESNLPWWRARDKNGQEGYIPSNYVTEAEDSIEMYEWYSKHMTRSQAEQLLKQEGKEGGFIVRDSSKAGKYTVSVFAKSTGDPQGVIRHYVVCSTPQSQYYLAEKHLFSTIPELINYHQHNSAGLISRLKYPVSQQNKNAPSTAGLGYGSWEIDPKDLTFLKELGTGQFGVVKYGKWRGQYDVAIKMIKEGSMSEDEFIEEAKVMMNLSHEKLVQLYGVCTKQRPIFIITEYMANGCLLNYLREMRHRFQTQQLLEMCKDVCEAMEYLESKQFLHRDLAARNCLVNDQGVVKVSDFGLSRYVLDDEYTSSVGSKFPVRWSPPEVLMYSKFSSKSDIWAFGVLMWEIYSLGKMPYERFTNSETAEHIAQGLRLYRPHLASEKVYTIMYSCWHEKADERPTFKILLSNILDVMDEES

Row | SMILES | GI50 [1] | GI50 [2] | GI50 (A431 (EGFR WT)) | IC50 (BTK) | IC50 (JAK3)
1 | C=CC(=O)Nc1cccc(Oc2nc(Nc3ccc(CN4CCC(N5CCOCC5)CC4)cc3)nc3ccsc23)c1 [Example 181] | < 50 nM | < 50 nM | > 1000 nM | ≤ 50 nM | ≤ 50 nM
2 | C=CC(=O)Nc1cccc(Oc2nc(Nc3ccc(N4CCN(C(C)C)CC4)cc3)nc3ccoc23)c1 [Example 229] | < 50 nM | < 50 nM | 100 to 1000 nM | ≤ 50 nM | ≤ 50 nM
3 | C=CC(=O)Nc1cccc(Oc2nc(Nc3ccc(C4CCN(CC)CC4)cc3)nc3ccsc23)c1 [Example 53] | < 50 nM | < 50 nM | > 1000 nM | ≤ 50 nM | ≤ 50 nM
4 | C=CC(=O)Nc1ccc(F)c(Nc2nc(Nc3ccc(N4CCN(C)CC4)c(F)c3)nc3ccsc23)c1 [Example 219, N-(4-fluoro-3-(2-(3-fluoro-4-(4-methyl-piperazin-1-yl)-phenylamino)-thieno[3,2-d]pyrimidin-4-ylamino)-phenyl)-acrylamide] | < 50 nM | < 50 nM | > 1000 nM | ≤ 50 nM | ≤ 50 nM
5 | C=CC(=O)Nc1cccc(Oc2nc(Nc3ccc(N4CCOCC4)cc3)nc3ccsc23)c1 [Example 29] | 50 to 100 nM | < 50 nM | > 1000 nM | ≤ 50 nM | ≤ 50 nM
6 | C=CC(=O)Nc1cccc(Oc2nc(Nc3ccc(CN(C)C)cc3)nc3ccsc23)c1 [Example 173] | < 50 nM | < 50 nM | 100 to 1000 nM | ≤ 50 nM | ≤ 50 nM
7 | C=CC(=O)Nc1cccc(Oc2nc(Nc3ccc(NC4CCN(C)CC4)c(F)c3)nc3ccoc23)c1 [Example 237] | < 50 nM | < 50 nM | > 1000 nM | ≤ 50 nM | ≤ 50 nM
8 | C=CC(=O)Nc1cccc(Oc2nc(Nc3ccc(N4CCC(N5CCCCC5)CC4)c(F)c3)nc3ccsc23)c1 [Example 125] | < 50 nM | < 50 nM | > 1000 nM | ≤ 50 nM | ≤ 50 nM
9 | C=CC(=O)Nc1cccc(Sc2nc(Nc3ccc(N4CCN(C)CC4)cc3)nc3ccsc23)c1 [Example 223, N-(3-(2-(4-(4-methylpiperazin-1-yl)phenylamino)thieno[3,2-d]pyrimidin-4-ylthio)phenyl)acrylamide] | < 50 nM | < 50 nM | > 1000 nM | ≤ 50 nM | ≤ 50 nM
10 | C=CC(=O)Nc1cccc(Oc2nc(Nc3ccc(N4CCC(N5CCN(CC)CC5)CC4)cc3)nc3ccsc23)c1 [Example 50] | < 50 nM | 100 to 1000 nM | > 1000 nM | ≤ 50 nM | 50 to 100 nM
11 | C=CC(=O)Nc1cccc(Oc2nc(Nc3ccc(C4=CCN(C)CC4)cc3)nc3ccsc23)c1 [Example 51] | < 50 nM | < 50 nM | > 1000 nM | ≤ 50 nM | 50 to 100 nM
12 | C=CC(=O)Nc1cccc(Oc2nc(Nc3ccc(C(=O)NC4CCN(C)CC4)cc3)nc3ccsc23)c1 [Example 82] | < 50 nM | < 50 nM | > 1000 nM | ≤ 50 nM | ≤ 50 nM
13 | C=CC(=O)Nc1cccc(Oc2nc(Nc3ccc(NC4CCN(C)CC4)c(F)c3)nc3ccsc23)c1 [Example 129] | < 50 nM | < 50 nM | > 1000 nM | ≤ 50 nM | ≤ 50 nM
14 | C=CC(=O)Nc1cccc(Oc2nc(Nc3ccc(N4CCN(C5CCN(C)CC5)CC4)nc3)nc3ccsc23)c1 [Example 148] | < 50 nM | < 50 nM | – | ≤ 50 nM | 50 to 100 nM

Results, then the compound that gave them:

Row | GI50 [1] | GI50 [2] | GI50 (A431 (EGFR WT)) | IC50 (BTK) | IC50 (JAK3) | SMILES
15 | < 50 nM | < 50 nM | > 1000 nM | ≤ 50 nM | ≤ 50 nM | C=CC(=O)Nc1cccc(Oc2nc(Nc3ccc(OCCN(C)C)cc3)nc3ccsc23)c1 [Example 62]
16 | < 50 nM | < 50 nM | 100 to 1000 nM | ≤ 50 nM | ≤ 50 nM | C=CC(=O)Nc1cccc(Oc2nc(Nc3ccc(N4CCN(C)CC4)cc3)nc3ccoc23)c1 [Example 228, N-(3-((2-((4-(4-methylpiperazin-1-yl)phenyl)amino)furo[3,2-d]pyrimidin-4-yl)oxy)phenyl)acrylamide]
17 | < 50 nM | < 50 nM | > 1000 nM | 50 to 100 nM | 50 to 100 nM | C=CC(=O)Nc1cccc(Oc2nc(Nc3ccc(CN4CCN(CC)CC4)cc3)nc3ccsc23)c1 [Example 183]
18 | < 50 nM | < 50 nM | 100 to 1000 nM | ≤ 50 nM | ≤ 50 nM | C=CC(=O)Nc1cccc(Oc2nc(Nc3ccc(C(=O)NC4CCN(C(C)C)CC4)cc3)nc3ccsc23)c1 [Example 83]
19 | < 50 nM | < 50 nM | > 1000 nM | ≤ 50 nM | 50 to 100 nM | C=CC(=O)Nc1cccc(Oc2nc(Nc3ccc(OC4CCN(CC)CC4)cc3)nc3ccsc23)c1 [Example 66]
20 | 50 to 100 nM | < 50 nM | > 1000 nM | ≤ 50 nM | 50 to 100 nM | C=CC(=O)Nc1cccc(Oc2nc(Nc3ccc(CCN4CCN(CC)CC4)cc3)nc3ccsc23)c1 [Example 99]
21 | < 50 nM | < 50 nM | > 1000 nM | ≤ 50 nM | ≤ 50 nM | C=CC(=O)Nc1cccc(Oc2nc(Nc3ccc(C(=O)NC4CCN(C)CC4)c(Cl)c3)nc3ccsc23)c1 [Example 142]
22 | < 50 nM | < 50 nM | > 1000 nM | ≤ 50 nM | 50 to 100 nM | C=CC(=O)Nc1cccc(Oc2nc(Nc3ccc(C(=O)N4CCN(CC)CC4)c(Cl)c3)nc3ccsc23)c1 [Example 203]
23 | < 50 nM | < 50 nM | 100 to 1000 nM | ≤ 50 nM | ≤ 50 nM | C=CC(=O)Nc1cccc(Oc2nc(Nc3ccc(N4CCN(C(C)C)CC4)cc3)nc3ccsc23)c1 [Example 11]
24 | < 50 nM | < 50 nM | > 1000 nM | ≤ 50 nM | ≤ 50 nM | C=CC(=O)Nc1cccc(Oc2nc(Nc3ccc(CN4CCC(N(C)C)CC4)cc3)nc3ccsc23)c1 [Example 180]
25 | < 50 nM | < 50 nM | > 1000 nM | ≤ 50 nM | 50 to 100 nM | C=CC(=O)Nc1cccc(Oc2nc(Nc3ccc(N4CCN(C)CC4)c(F)c3)nc3ccsc23)c1 [Example 3]
26 | < 50 nM | < 50 nM | – | 50 to 100 nM | 50 to 100 nM | C=CC(=O)Nc1cccc(Oc2nc(Nc3ccc(N4CCC(N5CCCC5)CC4)cc3)nc3ccsc23)c1 [Example 47]
27 | < 50 nM | 100 to 1000 nM | – | ≤ 50 nM | 50 to 100 nM | C=CC(=O)Nc1cccc(Oc2nc(Nc3ccc(NCCN(C)C)cc3)nc3ccsc23)c1 [Example 57]

Reference: patent publication USRE46511E1, “Fused pyrimidine derivatives for inhibition of tyrosine kinase activity” (HANMI SCIENCE CO., LTD., priority 2010, dated 2017)
